Article PMC10011554, “BET inhibitor trotabresib in heavily pretreated patients with solid tumors and diffuse large B-cell lymphomas” (Nature Communications, 2023)
pIC50: −log10 of the molar value. Where two headings read alike, the source gives them in different places.

Legend:
[1] = Clinical plasma and CSF pharmacokinetics, part A; format: in vivo; conditions: human
Method: Protocol CC-90010-ST-001 Celgene Corporation
Following oral administration of CC-90010, geometric mean peak exposure to CC-90010, based on Cmax, increased with dose on Day 1 (single dose) and after last dose (repeated dosing), in a manner approximately proportional with dose. Across all dose levels and both sampling occasions, Cmax was observed a few hours after dosing, with median tmax ranging from 1 to 2 hours postdose. The terminal elimination half-life, where estimated, was generally similar across the dose schedules, ranging from approximately 40 to 70 hours, after repeated dosing of […]
across the dose levels, after repeated dosing of CC-90010. There was evidence of accumulation after repeated dosing of CC-90010 for all dose schedules and dose levels, with accumulation […]
Between-subject variability across the dose levels ranged from 22.0% to 91.7% on Day 1 based […]
Cerebrospinal fluid samples were collected for one subject, who had quantifiable cerebrospinal fluid concentrations of CC-90010, with an average time matched CSF/plasma ratio of 6.6%.
1.4. Safety Monitoring Plan […]
(1 picture or pasted object on this page, not shown here)
The provisional CC-90010 dose levels (total doses within on cycle) are: 180 mg in Schedule 1, […]
220 mg in Schedule 4. It is however possible for some doses to be skipped or additional dose levels to be added during the course of the study, based on the emerging safety information.
After each cohort the posterior distributions for the probabilities of a DLT rates at different dose levels are obtained. The results of this analysis are summarized in terms of the estimated probabilities that the true rate of DLT at each dose-level will have of lying in each of the […]
• [0.16, 0.33) targeted toxicity
• [0.33, 1.00] excessive toxicity.
Following the principle of escalation with EWOC, after each cohort of subjects the recommended dose is the one with the highest posterior probability of the DLT rate falling in the target interval [16%, 33%) among the doses fulfilling EWOC, ie, it is unlikely (<25% posterior probability) that the DLT rate at the dose falls in the excessive toxicity interval.
Note that the dose that maximizes the posterior probability of targeted toxicity is the best estimate of the MTD, but it may not be an admissible dose according to the overdose criterion if the amount of data is insufficient. […]
Plasma PK parameters such as AUC0-24, C max, Tmax, t1/2, CL/F, and Vz/F of CC-90010 will be calculated by the noncompartmental analysis method from the plasma concentration-time profiles of CC-90010. Additional PK parameters including CSF to plasma concentration ratio of CC-90010, may be calculated, if data permits. […]

TMD8 (ABC DLBCL) = test system: TMD8 (ABC DLBCL); design: method as in Report CC-90010-Pharm-1018; conditions: TMD8, Experiment 1, ref Report CC-90010-Pharm-1018; read-out: absolute IC50, proliferation; cited from earlier work
OCI-LY-10 (ABC DLBCL) = test system: OCI-LY-10 (ABC DLBCL); design: method as in Report CC-90010-Pharm-1018; conditions: OCI-LY-10, Table 2, ref Report CC-90010-Pharm-1018; read-out: absolute IC50, proliferation; cited from earlier work
U-2932 (DOX-R) = test system: U-2932 (DOX-R); design: method as in Report CC-90010-Pharm-1018; conditions: Table 2, ref Report CC-90010-Pharm-1018, read-out: absolute IC50, proliferation; cited from earlier work
[2] = design: method as in Investigator's Brochure; conditions: dogs, ref Investigator's Brochure, cited from earlier work
BCRP or MRP2 = test system: BCRP or MRP2; design: method as in Investigator's Brochure; conditions: BCRP or MRP2, ref Investigator's Brochure; cited from earlier work
P-gp = test system: P-gp; design: method as in Investigator's Brochure; conditions: ref Investigator's Brochure; cited from earlier work
[3] = design: method as in Investigator's Brochure; conditions: ref Investigator's Brochure, cited from earlier work

`Cn1cc(-c2cc(S(C)(=O)=O)ccc2OCC2CC2)c2ccccc2c1=O` [trotabresib] gave a Kp ([1]; CSF, oral, one subject, read-out: average time matched CSF/plasma ratio) of 0.066, a Tmax ([1]; in vivo, part A, across all dose levels, Day 1 and last dose, read-out: median tmax) of 1 to 2 h and a Vd/F ([1]; in vivo, part A, across dose levels, after repeated dosing, read-out: Vss/F) of 134 to 553 L. The half-life ([1]; in vivo, part A, across dose schedules, after repeated dosing, read-out: terminal elimination half-life) was 40 to 70 h, the pIC50 (TMD8 (ABC DLBCL)) was 6.72 and the pIC50 (OCI-LY-10 (ABC DLBCL)) was 6.38. The pIC50 (U-2932 (DOX-R)) was 6.46, the mean oral bioavailability [2] was 76% and the “accumulation after repeat dosing” value ([2]; toxicokinetics) was “up to 3 fold”. The transporter inhibition (BCRP or MRP2) was “not an inhibitor”, the transporter substrate status (P-gp) was “substrate of P-gp” and the severely toxic dose ([3]; 4-week rat study, 3 days on/4 days off) was at least 20 mg base/kg/dose. The “overarching rat STD10” value ([3]; 3 days-on/4 days-off schedule) was 20 mg base/kg/dose, the STD10 ([3]; female rats) was 20 mg base/kg/dose and the STD10 ([3]; male rats) was 30 mg base/kg/dose. The “functional observational battery (FOB) effects” value ([3]; rat) was “no CC-90010-related FOB effects” and the “mean exposure corresponding to the rat STD10” value [3] was 52800 ng·h/mL.
